Measurements reported in patent publication US20210078988A1, “MODULATORS OF INDOLEAMINE 2,3-DIOXYGENASE” (GLAXOSMITHKLINE INTELLECTUAL PROPERTY DEVELOPMENT LIMITED, priority 2017, published 2021).

Molecular target: T1, indoleamine 2, 3-dioxygenase (IDO1) (Homo sapiens, UniProt P14902)
T1 construct: human peripheral blood mononuclear cells (PBMC) (PB003F; host or cells: human PBMC stimulated with IFN-gamma and LPS
Assay: PBMC IDO1 assay (kynurenine detection via mass spectrometry)
Type: cell-based
Settings: human PBMC stimulated with IFN-γ and LPS, 2 days, kynurenine by mass spectrometry; read-out: IDO1 PBMC pIC50 (converted)
Experimental: Compounds of the present invention were tested via high-throughput cellular assays utilizing detection of kynurenine via mass spectrometry and cytotoxicity as end-points. For the mass spectrometry and cytotoxicity assays, human peripheral blood mononuclear cells (PBMC) (PB003F; AIICells®, Alameda, Calif.) were stimulated with human interferon-γ (IFN-γ) (Sigma-Aldrich Corporation, St. Louis, Mo.) and lipopolysaccharide from Salmonella minnesota (LPS) (Invivogen, San Diego, Calif.) to induce the expression of indoleamine 2, 3-dioxygenase (IDO1). Compounds with IDO1 inhibitory properties decreased the amount of kynurenine produced by the cells via the tryptophan catabolic pathway. Cellular toxicity due to the effect of compound treatment was measured using CellTiter-Glo® reagent (CTG) (Promega Corporation, Madison, Wis.), which is based on luminescent detection of ATP, an indicator of metabolically active cells.
In preparation for the assays, test compounds were serially diluted 3-fold in DMSO from a typical top concentration of 5 mM and plated at 0.5 μL in 384-well, polystyrene, clear bottom, tissue culture treated plates with lids (Greiner Bio-One, Kremsmunster, Austria) to generate 11-point dose response curves. Low control wells (0% kynurenine or 100% cytotoxicity) contained either 0.5 μL of DMSO in the presence of unstimulated (-IFN-γ/-LPS) PBMCs for the mass spectrometry assay or 0.5 μL of DMSO in the absence of cells for the cytotoxicity assay, and high control wells (100% kynurenine or 0% cytotoxicity) contained 0.5 μL of DMSO in the presence of stimulated (+IFN-γ/+LPS) PBMCs for both the mass spectrometry and cytotoxicity assays.
Frozen stocks of PBMCs were washed and recovered in RPMI 1640 medium (Thermo Fisher Scientific, Inc., Waltham, Mass.) supplemented with 10% v/v heat-inactivated fetal bovine serum (FBS) (Thermo Fisher Scientific, Inc., Waltham, Mass.), and 1× penicillin-streptomycin antibiotic solution (Thermo Fisher Scientific, Inc., Waltham, Mass.). The cells were diluted to 1,000,000 cells/mL in the supplemented RPMI 1640 medium. 50 μL of either the cell suspension, for the mass spectrometry assay, or medium alone, for the cytotoxicity assay, were added to the low control wells, on the previously prepared 384-well compound plates, resulting in 50,000 cells/well or 0 cells/well respectively. IFN-γ and LPS were added to the remaining cell suspension at final concentrations of 100 ng/ml and 50 ng/ml respectively, and 50 μL of the stimulated cells were added to all remaining wells on the 384-well compound plates. The plates, with lids, were then placed in a 37° C., 5% CO2 humidified incubator for 2 days.
Following incubation, the 384-well plates were removed from the incubator and allowed to equilibrate to room temperature for 30 minutes. For the cytotoxicity assay, CellTiter-Glo® was prepared according to the manufacturer's instructions, and 40 μL were added to each plate well. After a twenty minute incubation at room temperature, luminescence was read on an EnVision® Multilabel Reader (PerkinElmer Inc., Waltham, Mass.). For the mass spectrometry assay, 10 μL of supernatant from each well of the compound-treated plates were added to 40 μL of acetonitrile, containing 10 μM of an internal standard for normalization, in 384-well, polypropylene, V-bottom plates (Greiner Bio-One, Kremsmunster, Austria) to extract the organic analytes. Following centrifugation at 2000 rpm for 10 minutes, 10 μL from each well of the acetonitrile extraction plates were added to 90 μL of sterile, distilled H2O in 384-well, polypropylene, V-bottom plates for analysis of kynurenine and the internal standard on the RapidFire 300 (Agilent Technologies, Santa Clara, Calif.) and 4000 QTRAP MS (SCIEX, Framingham, Mass.). MS data were integrated using Agilent Technologies' RapidFire Integrator software, and data were normalized for analysis as a ratio of kynurenine to the internal standard. […]

T1 sequence (P14902 whole entry): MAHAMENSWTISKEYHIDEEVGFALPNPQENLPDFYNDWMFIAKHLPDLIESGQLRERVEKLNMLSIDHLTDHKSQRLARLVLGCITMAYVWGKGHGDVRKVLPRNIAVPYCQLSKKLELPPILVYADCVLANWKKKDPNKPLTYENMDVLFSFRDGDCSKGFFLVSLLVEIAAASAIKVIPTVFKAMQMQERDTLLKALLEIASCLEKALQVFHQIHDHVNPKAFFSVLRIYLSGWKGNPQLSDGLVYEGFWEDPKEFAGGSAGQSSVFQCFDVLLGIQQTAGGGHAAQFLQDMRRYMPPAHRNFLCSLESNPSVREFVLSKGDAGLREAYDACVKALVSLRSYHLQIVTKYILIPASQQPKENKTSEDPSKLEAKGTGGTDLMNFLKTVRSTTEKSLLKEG

IC50 [nM]	Compound
7.94	CCc1ccc(C(=O)NC(CC2CCN(C(=O)OC(C)(C)C)CC2)c2ccccc2)s1 (stereo not shown) [Example 1, tert-butyl 4-(2-(5-ethylthiophene-2-carboxamido)-2-phenylethyl)piperidine-1-carboxylate]
7.94	CC(C)(C)OC(=O)N1CCC(CC(NC(=O)c2ccc(Br)s2)c2ccccc2)CC1 (stereo not shown) [Example 2, tert-butyl 4-(2-(5-bromothiophene-2-carboxamido)-2-phenylethyl)piperidine-1-carboxylate]
10	CC(C)(C)OC(=O)N1CCC(CC(NC(=O)c2ccc(Cl)s2)c2ccccc2)CC1 (stereo not shown) [Example 3, tert-butyl 4-(2-(5-chlorothiophene-2-carboxamido)-2-phenylethyl)piperidine-1-carboxylate]
3.98	C#Cc1ccc(C(=O)NC(CC2CCN(C(=O)OC(C)(C)C)CC2)c2ccccc2)s1 (stereo not shown) [Example 4, tert-butyl 4-(2-(5-ethynylthiophene-2-carboxamido)-2-phenylethyl)piperidine-1-carboxylate]
7.94	C#Cc1ccc(C(=O)NC(CC2CCN(C(=O)OC(C)(C)C)CC2)c2ccccc2)cc1 (stereo not shown) [Example 5, tert-butyl 4-(2-(4-ethynylbenzamido)-2-phenylethyl)piperidine-1-carboxylate]
10	C#Cc1ccc(C(=O)NC(CC2CCN(C(=O)OC(C)(C)C)CC2)c2ccccc2)cc1F (stereo not shown) [Example 6, tert-butyl 4-(2-(4-ethynyl-3-fluorobenzamido)-2-phenylethyl)piperidine-1-carboxylate]
5.01	Cc1ccc(C(=O)N[C@@H](CC2CCN(C(=O)OC(C)(C)C)CC2)C2CC2)s1 [Example 9, (S)-tert-butyl 4-(2-cyclopropyl-2-(5-methylthiophene-2-carboxamido)ethyl)piperidine-1-carboxylate]
3.98	COc1ccc(C(CC2CCN(C(=O)OC(C)(C)C)CC2)NC(=O)c2ccc(Cl)s2)cn1 (stereo not shown) [Example 15, tert-butyl 4-(2-(5-chlorothiophene-2-carboxamido)-2-(6-methoxypyridin-3-yl)ethyl)piperidine-1-carboxylate]
0.794	COc1ccc([C@H](CC2CCN(C(=O)OC(C)(C)C)CC2)NC(=O)c2ccc(Cl)s2)cn1 [Example 16, tert-butyl (S)-4-(2-(5-chlorothiophene-2-carboxamido)-2-(6-methoxypyridin-3-yl)ethyl)piperidine-1-carboxylate]
7.94	COc1ccc([C@H](CC2CCN(C(=O)OC(C)(C)C)CC2)NC(=O)c2ccc(F)cc2)cn1 [Example 17, tert-butyl (S)-4-(2-(4-fluorobenzamido)-2-(6-methoxypyridin-3-yl)ethyl)piperidine-1-carboxylate]
3.98	COc1ccc([C@H](CC2CCN(C(=O)OC(C)(C)C)CC2)NC(=O)c2ccc(Cl)cc2)cn1 [Example 19, tert-butyl (S)-4-(2-(4-chlorobenzamido)-2-(6-methoxypyridin-3-yl)ethyl)piperidine-1-carboxylate]
2	COc1ccc([C@H](CC2CCN(C(=O)OC(C)(C)C)CC2)NC(=O)c2ccc(C)s2)cn1 [Example 20, tert-butyl(S)-4-(2-(6-methoxypyridin-3-yl)-2-(5-methylthiophene-2-carboxamido)ethyl)piperidine-1-carboxylate]
3.98	COc1ccc([C@H](CC2CCN(C(=O)OC(C)(C)C)CC2)NC(=O)c2ccc(Br)cc2)cn1 [Example 23, tert-butyl (S)-4-(2-(4-bromobenzamido)-2-(6-methoxypyridin-3-yl)ethyl)piperidine-1-carboxylate]
3.16	CCc1ccc(C(=O)N[C@@H](CC2CCN(C(=O)OC(C)(C)C)CC2)c2ccc(OC)nc2)s1 [Example 24, tert-butyl (S)-4-(2-(5-ethylthiophene-2-carboxamido)-2-(6-methoxypyridin-3-yl)ethyl)piperidine-1-carboxylate]
3.16	COc1ccc([C@H](CC2CCN(C(=O)OC(C)(C)C)CC2)NC(=O)c2ccc(F)s2)cn1 [Example 25, tert-butyl (S)-4-(2-(5-fluorothiophene-2-carboxamido)-2-(6-methoxypyridin-3-yl)ethyl)piperidine-1-carboxylate]
7.94	Cc1ccc(C(=O)NC(CC(C)C)CC2CCN(C(=O)OC(C)(C)C)CC2)s1 (stereo not shown) [Example 26, tert-butyl 4-(4-methyl-2-(5-methylthiophene-2-carboxamido)pentyl)piperidine-1-carboxylate]

The next lines start with the compound.

Compound	IC50 [nM]
CCOC(=O)N1CCC(CC(NC(=O)c2ccc(Cl)s2)C2CC2)CC1 (stereo not shown) [Example 7, ethyl 4-(2-(5-chlorothiophene-2-carboxamido)-2-cyclopropylethyl)piperidine-1-carboxylate]	6.31
CC(C)(C)OC(=O)N1CCC(C[C@H](NC(=O)c2ccc(Cl)s2)C2CC2)CC1 [Example 8, (S)-tert-butyl 4-(2-(5-chlorothiophene-2-carboxamido)-2-cyclopropylethyl)piperidine-1-carboxylate]	6.31
CCc1ccc(C(=O)N[C@@H](CC2CCN(C(=O)OC(C)(C)C)CC2)C2CC2)s1 [Example 10, (S)-tert-butyl 4-(2-cyclopropyl-2-(5-ethylthiophene-2-carboxamido)ethyl)piperidine-1-carboxylate]	5.01
CCOC(=O)N1CCC(C[C@H](NC(=O)c2ccc(C)s2)C2CC2)CC1 [Example 11, (S)-ethyl 4-(2-cyclopropyl-2-(5-methylthiophene-2-carboxamido)ethyl)piperidine-1-carboxylate]	5.01
CCOC(=O)N1CCC(C[C@H](NC(=O)c2ccc(Cl)s2)C2CC2)CC1 [Example 12, ethyl (S)-4-(2-(5-chlorothiophene-2-carboxamido)-2-cyclopropylethyl)piperidine-1-carboxylate]	3.16
COC(=O)N1CCC(C[C@H](NC(=O)c2ccc(Cl)s2)C2CC2)CC1 [Example 13, (S)-methyl 4-(2-(5-chlorothiophene-2-carboxamido)-2-cyclopropylethyl)piperidine-1-carboxylate]	7.94
CC(C)OC(=O)N1CCC(C[C@H](NC(=O)c2ccc(Cl)s2)C2CC2)CC1 [Example 14, isopropyl (S)-4-(2-(5-chlorothiophene-2-carboxamido)-2-cyclopropylethyl)piperidine-1-carboxylate]	3.98
CC(C)CC(CC1CCN(C(=O)OC(C)(C)C)CC1)NC(=O)c1ccc(Cl)s1 (stereo not shown) [Example 18, tert-butyl 4-(2-(5-chlorothiophene-2-carboxamido)-4-methylpentyl)piperidine-1-carboxylate]	6.31
COc1ccc([C@H](CC2CCN(C(=O)OC(C)C)CC2)NC(=O)c2ccc(Cl)s2)cn1 [Example 21, isopropyl (S)-4-(2-(5-chlorothiophene-2-carboxamido)-2-(6-methoxypyridin-3-yl)ethyl)piperidine-1-carboxylate]	1.58
COc1ccc([C@H](CC2CCN(C(=O)OC(C)C)CC2)NC(=O)c2ccc(Cl)cc2)cn1 [Example 22, isopropyl (S)-4-(2-(4-chlorobenzamido)-2-(6-methoxypyridin-3-yl)ethyl)piperidine-1-carboxylate]	2
CC(C)CC(CC1CCN(C(=O)OC(C)(C)C)CC1)NC(=O)c1ccc(Br)cc1 (stereo not shown) [Example 27, tert-butyl 4-(2-(4-bromobenzamido)-4-methylpentyl)piperidine-1-carboxylate]	10
CC(C)CC(CC1CCN(C(=O)OC(C)(C)C)CC1)NC(=O)c1ccc(Br)s1 (stereo not shown) [Example 28, tert-butyl 4-(2-(5-bromothiophene-2-carboxamido)-4-methylpentyl)piperidine-1-carboxylate]	7.94
